According to publication PMC5218480 (PLoS ONE, 2017):

Tested on: MV-4-11 cells
Test: Gene expression microarray analysis (Affymetrix PrimeView) and GSEA
Format: cell-based, human
Parameters: RFU PODN (11730768_x_at) / Fold change /veh PODN (11730768_x_at) / RFU LINC00158 (11744669_a_at) / Fold change /veh LINC00158 (11744669_a_at) / RFU DUSP10 (11751237_a_at) / Fold change /veh DUSP10 (11751237_a_at) / RFU ID3 (11757404_x_at) / Fold change /veh ID3 (11757404_x_at) / RFU PLEKHG5 (11737974_s_at) / Fold change /veh PLEKHG5 (11737974_s_at) / RFU LRRC4B (11730491_at) / Fold change /veh LRRC4B (11730491_at) / RFU GIMAP4 (11747438_a_at) / Fold change /veh GIMAP4 (11747438_a_at) / RFU KRT8 (11758183_x_at) / Fold change /veh KRT8 (11758183_x_at) / RFU CNN1 (11734310_a_at) / Fold change /veh CNN1 (11734310_a_at) / RFU VPS37D (11726825_at) / Fold change /veh VPS37D (11726825_at) / RFU C10orf10 (11716522_x_at) / Fold change /veh C10orf10 (11716522_x_at) / RFU KIR2DL2 /// KIR2DL4 /// KIR2DL5A /// KIR2DL5B /// KIR2DS1 /// KIR2DS2 /// KIR2DS3 /// KIR2DS4 /// KIR3DL3 /// KIR3DL3 /// KIR3DS1 (11738374_at) / Fold change /veh KIR2DL2 /// KIR2DL4 /// KIR2DL5A /// KIR2DL5B /// KIR2DS1 /// KIR2DS2 /// KIR2DS3 /// KIR2DS4 /// KIR3DL3 /// KIR3DL3 /// KIR3DS1 (11738374_at) / RFU C1QL1 (11718748_at) / Fold change /veh C1QL1 (11718748_at) / RFU TMPRSS4 (11747572_a_at) / Fold change /veh TMPRSS4 (11747572_a_at) / RFU HAMP (11756126_x_at) / Fold change /veh HAMP (11756126_x_at) / RFU RNFT2 (11725882_a_at) / Fold change /veh RNFT2 (11725882_a_at) / RFU NR4A2 (11747474_a_at) / Fold change /veh NR4A2 (11747474_a_at) / RFU ABCC12 (11746883_a_at) / Fold change /veh ABCC12 (11746883_a_at) / RFU TMEM136 (11760407_x_at) / Fold change /veh TMEM136 (11760407_x_at) / RFU CLDN22 /// WWC2 (11732394_at) / Fold change /veh CLDN22 /// WWC2 (11732394_at) / RFU HLA-DPB1 (11760878_x_at) / Fold change /veh HLA-DPB1 (11760878_x_at) / RFU SPINT1 (11716480_a_at) / Fold change /veh SPINT1 (11716480_a_at) / RFU GAP43 (11754022_s_at) / Fold change /veh GAP43 (11754022_s_at) / RFU A4GNT (11735810_at) / Fold change /veh A4GNT (11735810_at) / RFU PRB3 (11715151_x_at) / Fold change /veh PRB3 (11715151_x_at) / RFU TUBB4B (11761932_at) / Fold change /veh TUBB4B (11761932_at) / RFU CAPN14 (11732068_a_at) / Fold change /veh CAPN14 (11732068_a_at) / RFU TMCC2 (11721928_a_at) / Fold change /veh TMCC2 (11721928_a_at) / RFU IRGQ (11745062_a_at) / Fold change /veh IRGQ (11745062_a_at) / RFU FAM174B (11720279_a_at) / Fold change /veh FAM174B (11720279_a_at) / RFU TMPRSS4 (11748680_a_at) / Fold change /veh TMPRSS4 (11748680_a_at) / RFU FAM212B (11763350_a_at) / Fold change /veh FAM212B (11763350_a_at) / RFU PLEKHG5 (11743358_a_at) / Fold change /veh PLEKHG5 (11743358_a_at) / RFU ZSCAN30 (11745921_a_at) / Fold change /veh ZSCAN30 (11745921_a_at) / RFU CMKLR1 (11741424_a_at) / Fold change /veh CMKLR1 (11741424_a_at) / RFU LOC101060620 /// MAPK8IP1 (11723275_at) / Fold change /veh LOC101060620 /// MAPK8IP1 (11723275_at) / RFU SPTSSB (11747773_x_at) / Fold change /veh SPTSSB (11747773_x_at) / RFU PRSS12 (11739890_at) / Fold change /veh PRSS12 (11739890_at) / RFU BIN1 (11741810_x_at) / Fold change /veh BIN1 (11741810_x_at) / RFU WNT11 (11732464_a_at) / Fold change /veh WNT11 (11732464_a_at) / RFU C10orf10 (11716521_a_at) / Fold change /veh C10orf10 (11716521_a_at) / RFU C5orf56 (11738089_at) / Fold change /veh C5orf56 (11738089_at) / RFU CYB561 (11721691_x_at) / Fold change /veh CYB561 (11721691_x_at) / RFU ANKRD19P (11752326_a_at) / Fold change /veh ANKRD19P (11752326_a_at) / RFU OR2T12 /// OR2T33 /// OR2T8 (11738714_s_at) / Fold change /veh OR2T12 /// OR2T33 /// OR2T8 (11738714_s_at) / RFU VCAN (11748164_a_at) / Fold change /veh VCAN (11748164_a_at) / RFU JSRP1 (11732532_at) / Fold change /veh JSRP1 (11732532_at) / RFU KRTAP10-11 (11738290_x_at) / Fold change /veh KRTAP10-11 (11738290_x_at) / RFU MYO3A (11730013_a_at) / Fold change /veh MYO3A (11730013_a_at) / RFU EBF3 (11725865_a_at) / Fold change /veh EBF3 (11725865_a_at) / RFU CAMK2N1 (11719241_x_at) / Fold change /veh CAMK2N1 (11719241_x_at) / RFU C5orf56 (11738088_a_at) / Fold change /veh C5orf56 (11738088_a_at) / RFU OLFML3 (11715873_a_at) / Fold change /veh OLFML3 (11715873_a_at) / RFU LOC100653217 /// NTM (11731650_a_at) / Fold change /veh LOC100653217 /// NTM (11731650_a_at) / RFU MAPK11 (11762145_a_at) / Fold change /veh MAPK11 (11762145_a_at) / RFU FIZ1 (11724087_x_at) / Fold change /veh FIZ1 (11724087_x_at) / RFU OASL (11726364_x_at) / Fold change /veh OASL (11726364_x_at) / RFU SOX15 (11748057_x_at) / Fold change /veh SOX15 (11748057_x_at) / RFU CD79A (11719716_a_at) / Fold change /veh CD79A (11719716_a_at) / RFU HIST1H1D (11736915_at) / Fold change /veh HIST1H1D (11736915_at) / RFU CASKIN2 (11723855_a_at) / Fold change /veh CASKIN2 (11723855_a_at) / RFU LOC730098 (11760151_x_at) / Fold change /veh LOC730098 (11760151_x_at) / RFU OR4N2 (11742367_at) / Fold change /veh OR4N2 (11742367_at) / RFU PRRT2 (11749266_a_at) / Fold change /veh PRRT2 (11749266_a_at) / RFU SNX32 (11753110_a_at) / Fold change /veh SNX32 (11753110_a_at) / RFU CDHR5 (11726645_a_at) / Fold change /veh CDHR5 (11726645_a_at) / RFU RCAN1 (11760418_a_at) / Fold change /veh RCAN1 (11760418_a_at) / RFU FAM167A (11723789_a_at) / Fold change /veh FAM167A (11723789_a_at) / RFU FAM26E (11764081_at) / Fold change /veh FAM26E (11764081_at) / RFU ISYNA1 (11749810_s_at) / Fold change /veh ISYNA1 (11749810_s_at) / RFU ACY1 (11761880_at) / Fold change /veh ACY1 (11761880_at) / RFU 11764098_at / Fold change /veh 11764098_at / RFU SAMD14 (11745864_x_at) / Fold change /veh SAMD14 (11745864_x_at) / RFU NPB (11741838_a_at) / Fold change /veh NPB (11741838_a_at) / RFU TMPRSS6 (11731388_a_at) / Fold change /veh TMPRSS6 (11731388_a_at) / RFU KRTAP10-2 (11738614_at) / Fold change /veh KRTAP10-2 (11738614_at) / RFU ARHGAP8 /// PRR5-ARHGAP8 (11727945_x_at) / Fold change /veh ARHGAP8 /// PRR5-ARHGAP8 (11727945_x_at) / RFU KRTAP5-7 /// NADSYN1 (11734609_at) / Fold change /veh KRTAP5-7 /// NADSYN1 (11734609_at) / RFU RASL12 (11751679_a_at) / Fold change /veh RASL12 (11751679_a_at) / RFU CDKN2B (11736163_a_at) / Fold change /veh CDKN2B (11736163_a_at) / RFU PRF1 (11729649_at) / Fold change /veh PRF1 (11729649_at) / RFU, ZNF638 /// ZNF638-IT1 / Fold change vs veh, ZNF638 /// ZNF638-IT1 / RFU, PANK3 / Fold change vs veh, PANK3 / RFU, SH3YL1 / Fold change vs veh, SH3YL1 / RFU, ZEB2 / Fold change vs veh, ZEB2 / RFU, NRIP1 / Fold change vs veh, NRIP1 / RFU, PTTG1IP / Fold change vs veh, PTTG1IP / RFU, CAPN2 / Fold change vs veh, CAPN2 / RFU, MED14 / Fold change vs veh, MED14 / RFU, SNORA58 / Fold change vs veh, SNORA58 / RFU, C1orf63 / Fold change vs veh, C1orf63 / RFU, LRRFIP1 / Fold change vs veh, LRRFIP1 / RFU, NDUFAF7 / Fold change vs veh, NDUFAF7 / RFU, SLC12A2 / Fold change vs veh, SLC12A2 / RFU, IBTK / Fold change vs veh, IBTK / RFU, ESF1 / Fold change vs veh, ESF1 / Fold change vs veh, TMEM50B / RFU, TAOK1 / Fold change vs veh, TAOK1 / RFU, ACBD3 / Fold change vs veh, ACBD3 / RFU, TMA16 / Fold change vs veh, TMA16 / RFU, RWDD3 / Fold change vs veh, RWDD3 / RFU, BCAT1 / Fold change vs veh, BCAT1 / RFU, EDEM3 / Fold change vs veh, EDEM3 / RFU, TMEM33 / Fold change vs veh, TMEM33 / RFU, WDR75 / Fold change vs veh, WDR75 / RFU, AHCTF1 / Fold change vs veh, AHCTF1 / RFU, TFRC / Fold change vs veh, TFRC / RFU, ZDHHC17 / Fold change vs veh, ZDHHC17 / RFU, NOM1 / Fold change vs veh, NOM1 / RFU, ARL8B / Fold change vs veh, ARL8B / RFU, ZBTB11 / Fold change vs veh, ZBTB11 / RFU, TAMM41 / Fold change vs veh, TAMM41 / RFU, KIAA1704 /// LOC100996395 / Fold change vs veh, KIAA1704 /// LOC100996395 / RFU, ING1 / Fold change vs veh, ING1 / RFU, TRMT61B / Fold change vs veh, TRMT61B / RFU, FUBP3 / Fold change vs veh, FUBP3 / RFU, TP53 / Fold change vs veh, TP53 / RFU, TNKS2 / Fold change vs veh, TNKS2 / RFU, ZFP14 / Fold change vs veh, ZFP14 / RFU, ACTR2 / Fold change vs veh, ACTR2 / RFU, PPP3R1 / Fold change vs veh, PPP3R1 / RFU, PIK3R1 / Fold change vs veh, PIK3R1 / RFU, HNRNPA1 / Fold change vs veh, HNRNPA1 / RFU, RNF170 / Fold change vs veh, RNF170 / RFU, ZNF28 / Fold change vs veh, ZNF28 / RFU, RNGTT / Fold change vs veh, RNGTT / RFU, OGT / Fold change vs veh, OGT / RFU, BRD1 / Fold change vs veh, BRD1 / RFU, MARS / Fold change vs veh, MARS / RFU, ZNF655 / Fold change vs veh, ZNF655 / RFU, FAHD1 / Fold change vs veh, FAHD1 / RFU, BDP1 / Fold change vs veh, BDP1 / RFU, LRRCC1 / Fold change vs veh, LRRCC1 / RFU, ARID1A / Fold change vs veh, ARID1A / RFU, ZNF146 / Fold change vs veh, ZNF146 / RFU, ZNF330 / Fold change vs veh, ZNF330 / RFU, GPN3 / Fold change vs veh, GPN3 / RFU, C9orf123 / Fold change vs veh, C9orf123 / RFU, N4BP2L2 / Fold change vs veh, N4BP2L2 / RFU, ARFIP1 / Fold change vs veh, ARFIP1 / RFU, FAM179B / Fold change vs veh, FAM179B / RFU, BCL10 / Fold change vs veh, BCL10 / RFU, UHRF1BP1L / Fold change vs veh, UHRF1BP1L / RFU, BET1 / Fold change vs veh, BET1 / RFU, CNOT2 / Fold change vs veh, CNOT2 / RFU, ZNF268 / Fold change vs veh, ZNF268 / Fold change vs veh, ZNF507 / RFU, DGCR2 / Fold change vs veh, DGCR2 / RFU, WDSUB1 / Fold change vs veh, WDSUB1 / Fold change vs veh, HSP90B1 /// MIR3652 / RFU, ADSS / Fold change vs veh, ADSS / RFU, GK / Fold change vs veh, GK / RFU, ZNF148 / Fold change vs veh, ZNF148 / RFU, TAF9 / Fold change vs veh, TAF9 / RFU, SLC1A5 / Fold change vs veh, SLC1A5 / RFU, SLMO2 / Fold change vs veh, SLMO2 / RFU, ABCC4 / Fold change vs veh, ABCC4 / RFU, LOC101060439 /// RAP1B / Fold change vs veh, LOC101060439 /// RAP1B / RFU, RFX7 / Fold change vs veh, RFX7 / RFU, GTPBP10 / Fold change vs veh, GTPBP10 / RFU, CNEP1R1 / Fold change vs veh, CNEP1R1 / RFU, BIVM-ERCC5 /// ERCC5 / Fold change vs veh, BIVM-ERCC5 /// ERCC5 / RFU, ILF3 / Fold change vs veh, ILF3 / RFU 11762660_at / Fold change /veh 11762660_at / RFU VCAN (11757783_s_at) / Fold change /veh VCAN (11757783_s_at) / RFU DDX43 (11728927_at) / Fold change /veh DDX43 (11728927_at) / RFU KRT8 (11758188_x_at) / Fold change /veh KRT8 (11758188_x_at) / RFU NKD1 (11759106_at) / Fold change /veh NKD1 (11759106_at) / RFU SRD5A1 (11742802_a_at) / Fold change /veh SRD5A1 (11742802_a_at) / RFU TPSAB1 /// TPSB2 (11721975_s_at) / Fold change /veh TPSAB1 /// TPSB2 (11721975_s_at) / RFU GSTM3 (11746129_a_at) / Fold change /veh GSTM3 (11746129_a_at) / RFU IL23R (11737362_x_at) / Fold change /veh IL23R (11737362_x_at) / RFU TMEM51 (11727254_a_at) / Fold change /veh TMEM51 (11727254_a_at) / RFU PIWIL2 (11732686_x_at) / Fold change /veh PIWIL2 (11732686_x_at) / RFU ORM1 (11744905_x_at) / Fold change /veh ORM1 (11744905_x_at) / RFU CCDC152 (11743942_at) / Fold change /veh CCDC152 (11743942_at) / RFU ECM1 (11717891_a_at) / Fold change /veh ECM1 (11717891_a_at) / RFU IL23R (11748794_a_at) / Fold change /veh IL23R (11748794_a_at) / RFU TNFAIP8L3 (11732012_x_at) / Fold change /veh TNFAIP8L3 (11732012_x_at) / RFU MBOAT4 (11741988_at) / Fold change /veh MBOAT4 (11741988_at) / RFU 11764193_at / Fold change /veh 11764193_at / RFU TMEM53 (11763286_at) / Fold change /veh TMEM53 (11763286_at) / RFU MAGEB2 (11727129_at) / Fold change /veh MAGEB2 (11727129_at) / RFU TMEM200A (11744735_a_at) / Fold change /veh TMEM200A (11744735_a_at) / RFU CCDC152 (11751479_a_at) / Fold change /veh CCDC152 (11751479_a_at) / RFU FAM211A (11726209_a_at) / Fold change /veh FAM211A (11726209_a_at) / RFU RGS16 (11746705_a_at) / Fold change /veh RGS16 (11746705_a_at) / RFU VCAN (11755009_s_at) / Fold change /veh VCAN (11755009_s_at) / RFU RHOB (11743442_s_at) / Fold change /veh RHOB (11743442_s_at) / RFU RGS16 (11720943_a_at) / Fold change /veh RGS16 (11720943_a_at) / RFU RGS16 (11720944_at) / Fold change /veh RGS16 (11720944_at) / RFU, VPS4B / Fold change vs veh, VPS4B / RFU, CREB1 / Fold change vs veh, CREB1 / RFU, DNAJC13 / Fold change vs veh, DNAJC13 / RFU, GNAQ / Fold change vs veh, GNAQ / RFU, CDK5R1 / Fold change vs veh, CDK5R1 / RFU, ZRANB3 / Fold change vs veh, ZRANB3 / RFU, CUL4A / Fold change vs veh, CUL4A / RFU, CCNY / Fold change vs veh, CCNY / RFU, UFL1 / Fold change vs veh, UFL1 / RFU, COG3 / Fold change vs veh, COG3 / RFU, DIAPH2 / Fold change vs veh, DIAPH2 / RFU, SKA2 / Fold change vs veh, SKA2 / RFU, AFF3 / Fold change vs veh, AFF3 / RFU, LMF1 / Fold change vs veh, LMF1 / RFU, IPO11 / Fold change vs veh, IPO11 / RFU, DFFB / Fold change vs veh, DFFB / RFU, FOXP1 / Fold change vs veh, FOXP1 / RFU, CARD8 / Fold change vs veh, CARD8 / RFU, STRN3 / Fold change vs veh, STRN3 / RFU, ADK / Fold change vs veh, ADK / RFU, RASSF2 / Fold change vs veh, RASSF2 / RFU, WIPF1 / Fold change vs veh, WIPF1 / RFU, LARP1B / Fold change vs veh, LARP1B / RFU, RASA1 / Fold change vs veh, RASA1 / RFU, RB1 / Fold change vs veh, RB1 / RFU, PPFIA1 / Fold change vs veh, PPFIA1 / RFU, MAT2A / Fold change vs veh, MAT2A / RFU, CCT5 / Fold change vs veh, CCT5 / RFU, WDR92 / Fold change vs veh, WDR92 / RFU, CUX1 / Fold change vs veh, CUX1 / RFU, TTC7A / Fold change vs veh, TTC7A / RFU, TMEM135 / Fold change vs veh, TMEM135 / RFU, DEPTOR / Fold change vs veh, DEPTOR / RFU, CPM / Fold change vs veh, CPM / RFU, DNAJB6 / Fold change vs veh, DNAJB6 / RFU, CACNA2D3 / Fold change vs veh, CACNA2D3 / RFU, DTX4 / Fold change vs veh, DTX4 / RFU, TFCP2 / Fold change vs veh, TFCP2 / RFU, GMCL1 /// GMCL1P1 / Fold change vs veh, GMCL1 /// GMCL1P1 / RFU, AEBP2 / Fold change vs veh, AEBP2 / RFU, SNHG1 /// SNORD22 /// SNORD25 /// SNORD26 /// SNORD27 /// SNORD28 /// SNORD29 /// SNORD31 / Fold change vs veh, SNHG1 /// SNORD22 /// SNORD25 /// SNORD26 /// SNORD27 /// SNORD28 /// SNORD29 /// SNORD31 / Fold change (Aza/veh), C12orf56 (ProbeSet 11735607_a_at) / Fold change (ACY-1035/veh), C12orf56 (ProbeSet 11735607_a_at) / Fold change (Aza/veh), FGFR1OP (ProbeSet 11751329_s_at) / Fold change (ACY-1035/veh), FGFR1OP (ProbeSet 11751329_s_at) / Fold change (Aza/veh), VPS36 (ProbeSet 11739960_a_at) / Fold change (ACY-1035/veh), VPS36 (ProbeSet 11739960_a_at) / RFU SYPL1 (11715823_x_at) / Fold change /veh SYPL1 (11715823_x_at) / RFU IGFBP7 (11715501_s_at) / Fold change /veh IGFBP7 (11715501_s_at) / RFU REEP3 (11722064_at) / Fold change /veh REEP3 (11722064_at) / RFU IGLL1 (11728026_x_at) / Fold change /veh IGLL1 (11728026_x_at): dose or concentration left out as unconfirmed
Details: MV-4-11 cells, 48 hours

Nc1ccc(-c2cccs2)cc1NC(=O)c1ccc2c(c1)cc(C1CC1)n2CCN1CCOCC1 [ACY-1035]
RFU ZSCAN30 (11745921_a_at): 7.88 RFU
